Test results as given in patent US8084457B2, “Pharmaceutically active 4,6-disubstituted aminopyrimidine derivatives as modulators of protein kinases” (Lead Discovery Center GmbH, priority 2003, dated 2011).

Legend:
CDK2/CyclinA = molecular target: T1, CDK2/CyclinA (Homo sapiens, UniProt P24941); experiment: Kinase assay determining CDK2/CyclinA activity; format: biochemical
T1 construct: purchased Proqinase
Procedure: Kinase Assays Determining CDK2/CyclinA and CDK5/p35 Activity:
Kinase assays were performed as described by the manufacturers recommendations (Proqinase for CDK2/CyclinA and Upsate for CDK5/p35).

CDK1 = CDK1 (Homo sapiens, UniProt P06493); experiment: General kinase assay, selectivity panel: CDK1; format: biochemical; conditions: 10 μM of compound, in comparison to DMSO (0% inhibition)
Chain of CDK1 (P06493 whole entry, species assumed): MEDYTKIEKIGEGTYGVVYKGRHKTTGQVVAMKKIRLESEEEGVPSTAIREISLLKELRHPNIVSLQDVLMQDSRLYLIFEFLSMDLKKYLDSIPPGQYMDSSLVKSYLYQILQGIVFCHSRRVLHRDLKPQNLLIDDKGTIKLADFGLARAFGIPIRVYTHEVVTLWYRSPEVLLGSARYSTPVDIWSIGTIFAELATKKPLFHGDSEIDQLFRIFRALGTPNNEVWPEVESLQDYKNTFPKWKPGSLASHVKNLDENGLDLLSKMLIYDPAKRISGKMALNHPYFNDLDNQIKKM
Chain of CDK1 (P14635 whole entry partner, species assumed): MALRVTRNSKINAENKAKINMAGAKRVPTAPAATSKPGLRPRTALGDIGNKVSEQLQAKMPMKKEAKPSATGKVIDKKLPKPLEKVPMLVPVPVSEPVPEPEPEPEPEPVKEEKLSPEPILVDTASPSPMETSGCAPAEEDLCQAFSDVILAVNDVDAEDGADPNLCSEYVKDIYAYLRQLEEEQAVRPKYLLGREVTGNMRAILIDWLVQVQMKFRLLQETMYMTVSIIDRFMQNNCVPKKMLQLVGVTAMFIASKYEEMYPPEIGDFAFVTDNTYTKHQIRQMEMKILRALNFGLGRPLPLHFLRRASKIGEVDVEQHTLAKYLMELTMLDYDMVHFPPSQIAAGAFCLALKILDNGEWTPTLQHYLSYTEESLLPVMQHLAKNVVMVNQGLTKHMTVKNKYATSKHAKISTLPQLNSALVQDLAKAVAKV
Summary of the method: (§1)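 Inhibition by 10 μM compound, expressed relative to DMSO as 0%, comes from a 33P-ATP kinase reaction (1 hr, room temperature) quenched with EDTA. Phosphorylated substrate is bound to filters, rinsed in 0.75% H3PO4, and read by scintillation.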

EGFR = EGFR (Homo sapiens, UniProt P00533); experiment: General kinase assay, selectivity panel: EGFR; format: biochemical; conditions: 10 μM of compound, in comparison to DMSO (0% inhibition)
Chain of EGFR (P00533 25-1210, species assumed): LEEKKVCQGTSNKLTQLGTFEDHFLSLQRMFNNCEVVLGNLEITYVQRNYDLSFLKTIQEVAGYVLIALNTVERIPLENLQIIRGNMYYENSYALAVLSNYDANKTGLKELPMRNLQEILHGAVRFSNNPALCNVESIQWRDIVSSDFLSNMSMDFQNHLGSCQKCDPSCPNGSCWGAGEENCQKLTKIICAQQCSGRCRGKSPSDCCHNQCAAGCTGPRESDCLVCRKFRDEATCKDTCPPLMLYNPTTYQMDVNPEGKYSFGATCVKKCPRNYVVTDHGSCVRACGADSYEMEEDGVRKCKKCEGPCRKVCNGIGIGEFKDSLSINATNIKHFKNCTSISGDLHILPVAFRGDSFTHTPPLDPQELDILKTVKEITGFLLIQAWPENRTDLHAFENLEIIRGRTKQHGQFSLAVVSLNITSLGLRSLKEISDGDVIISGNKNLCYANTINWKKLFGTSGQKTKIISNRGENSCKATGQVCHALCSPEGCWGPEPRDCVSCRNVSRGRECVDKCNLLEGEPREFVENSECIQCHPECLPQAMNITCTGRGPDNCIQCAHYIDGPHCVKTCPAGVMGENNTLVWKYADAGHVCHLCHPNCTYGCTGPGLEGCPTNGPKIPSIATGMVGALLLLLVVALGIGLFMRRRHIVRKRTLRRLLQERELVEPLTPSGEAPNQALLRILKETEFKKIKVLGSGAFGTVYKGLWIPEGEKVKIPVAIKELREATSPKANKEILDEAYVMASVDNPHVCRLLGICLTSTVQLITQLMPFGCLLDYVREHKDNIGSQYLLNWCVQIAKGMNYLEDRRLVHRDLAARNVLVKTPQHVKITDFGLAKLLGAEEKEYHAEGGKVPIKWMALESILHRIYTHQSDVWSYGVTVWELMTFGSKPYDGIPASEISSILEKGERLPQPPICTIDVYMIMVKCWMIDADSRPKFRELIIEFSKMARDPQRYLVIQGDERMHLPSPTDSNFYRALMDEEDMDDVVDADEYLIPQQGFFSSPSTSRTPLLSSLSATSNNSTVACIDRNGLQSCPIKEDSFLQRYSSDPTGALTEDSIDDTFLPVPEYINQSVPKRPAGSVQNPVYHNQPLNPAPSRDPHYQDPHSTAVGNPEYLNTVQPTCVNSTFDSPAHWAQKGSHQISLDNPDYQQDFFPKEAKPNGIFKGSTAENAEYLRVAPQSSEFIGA
Summary of the method: as §1

GSK-3β = GSK-3β (Homo sapiens, UniProt P49841); experiment: General kinase assay, selectivity panel: GSK-3β; format: biochemical; conditions: 10 μM of compound, in comparison to DMSO (0% inhibition)
Chain of GSK-3β (P49841 whole entry, species assumed): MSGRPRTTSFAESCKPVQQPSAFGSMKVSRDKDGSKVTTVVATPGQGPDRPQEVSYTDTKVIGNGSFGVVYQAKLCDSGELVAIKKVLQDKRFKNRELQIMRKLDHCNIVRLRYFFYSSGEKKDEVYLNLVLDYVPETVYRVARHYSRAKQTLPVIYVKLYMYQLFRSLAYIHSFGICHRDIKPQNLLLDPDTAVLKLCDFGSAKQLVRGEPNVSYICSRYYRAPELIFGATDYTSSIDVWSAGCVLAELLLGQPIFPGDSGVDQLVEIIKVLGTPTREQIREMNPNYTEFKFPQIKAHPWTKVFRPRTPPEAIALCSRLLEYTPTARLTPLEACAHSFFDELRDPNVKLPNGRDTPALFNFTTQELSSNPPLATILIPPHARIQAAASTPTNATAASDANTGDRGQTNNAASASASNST
Summary of the method: as §1

PDGFR = experiment: General kinase assay, selectivity panel: PDGFR; format: biochemical; conditions: 10 μM of compound, in comparison to DMSO (0% inhibition)
Summary of the method: as §1

c-Kit = c-Kit (Homo sapiens, UniProt P10721); experiment: General kinase assay, selectivity panel: c-Kit; format: biochemical; conditions: 10 μM of compound, in comparison to DMSO (0% inhibition)
Chain of c-Kit (P10721 26-976): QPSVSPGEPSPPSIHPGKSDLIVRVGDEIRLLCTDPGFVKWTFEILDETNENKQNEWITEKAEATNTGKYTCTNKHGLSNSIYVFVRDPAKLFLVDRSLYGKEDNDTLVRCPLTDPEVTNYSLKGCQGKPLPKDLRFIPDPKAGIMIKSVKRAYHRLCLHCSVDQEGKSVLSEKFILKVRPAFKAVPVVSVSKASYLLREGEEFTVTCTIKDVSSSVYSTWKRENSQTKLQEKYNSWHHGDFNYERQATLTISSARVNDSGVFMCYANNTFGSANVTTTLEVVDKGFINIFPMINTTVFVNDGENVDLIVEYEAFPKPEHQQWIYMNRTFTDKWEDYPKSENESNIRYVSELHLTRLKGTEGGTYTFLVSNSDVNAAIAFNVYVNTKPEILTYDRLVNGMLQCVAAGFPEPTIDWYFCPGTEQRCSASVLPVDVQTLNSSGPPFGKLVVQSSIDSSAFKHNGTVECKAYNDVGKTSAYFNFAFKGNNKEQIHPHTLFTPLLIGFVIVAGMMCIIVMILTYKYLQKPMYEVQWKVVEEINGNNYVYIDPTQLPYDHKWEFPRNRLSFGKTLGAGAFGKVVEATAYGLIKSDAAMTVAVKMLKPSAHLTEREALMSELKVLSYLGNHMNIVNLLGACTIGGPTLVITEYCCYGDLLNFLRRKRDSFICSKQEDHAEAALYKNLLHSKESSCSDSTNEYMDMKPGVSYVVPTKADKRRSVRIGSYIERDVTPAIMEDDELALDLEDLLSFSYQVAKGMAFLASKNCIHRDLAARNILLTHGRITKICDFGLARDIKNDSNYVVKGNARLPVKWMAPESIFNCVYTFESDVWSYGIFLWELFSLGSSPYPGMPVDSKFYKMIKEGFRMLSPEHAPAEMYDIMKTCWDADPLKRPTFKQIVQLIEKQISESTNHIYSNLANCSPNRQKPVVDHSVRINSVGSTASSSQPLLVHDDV
Summary of the method: as §1

p56 Lck = p56 Lck (Homo sapiens, UniProt P06239); experiment: General kinase assay, selectivity panel: p56 Lck; format: biochemical; conditions: 10 μM of compound, in comparison to DMSO (0% inhibition)
Chain of p56 Lck (P06239 whole entry): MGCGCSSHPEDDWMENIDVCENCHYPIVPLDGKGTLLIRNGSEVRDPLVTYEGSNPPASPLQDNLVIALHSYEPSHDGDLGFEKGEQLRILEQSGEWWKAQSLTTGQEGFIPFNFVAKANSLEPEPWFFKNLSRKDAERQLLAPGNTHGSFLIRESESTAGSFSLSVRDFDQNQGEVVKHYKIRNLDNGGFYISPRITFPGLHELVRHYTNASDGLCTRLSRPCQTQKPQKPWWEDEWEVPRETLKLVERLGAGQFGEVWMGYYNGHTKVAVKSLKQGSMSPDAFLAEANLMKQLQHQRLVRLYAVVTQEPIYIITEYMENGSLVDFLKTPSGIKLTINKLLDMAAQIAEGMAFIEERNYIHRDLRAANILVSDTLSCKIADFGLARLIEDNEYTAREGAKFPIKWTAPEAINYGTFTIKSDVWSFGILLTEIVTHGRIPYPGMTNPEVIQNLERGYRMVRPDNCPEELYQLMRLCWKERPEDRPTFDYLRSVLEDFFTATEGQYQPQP
Summary of the method: as §1

RSK1 = RSK1 (Homo sapiens, UniProt Q15418); experiment: General kinase assay, selectivity panel: RSK1; format: biochemical; conditions: 10 μM of compound, in comparison to DMSO (0% inhibition)
Procedure: (§2) The inhibitory effect of compounds according to the present invention on the activity of protein kinases, depicted in Table 1, can be measured according to the following protocol:
(§3) Pipettinq Sequence: • 1) Add 10 μl 4 fold concentrated Substrate+4 fold concentrated ATP in 3 fold concentrated Reaction Buffer to each well of Assay Plate • 2) Add 10 μl 4 fold concentrated inhibitor in 4% DMSO in H2O to each well except to C− and C+ wells • 3) Add 10 μl 4% DMSO in H2O to C− and C+ wells • 4) Add 10 μl 500 mM EDTA in H2O to − wells • 5) Add 10 μl 50 μCi/ml Adenosine 5′-[γ-^33P]triphosphate in H2O to each well • 6) Add 10 μl 4 fold concentrated kinase in Reaction Buffer to each well • 7) Incubate 1 hr at room temperature • 8) Add 10 μl 50 mM EDTA in H2O to each well except to C− wells • 9) Prepare MAPH plates by adding 200 μl 0.75% H3PO4 to each well • 10) Exhaust 0.75% H3PO4 using Millipore vacuum station • 11) Add 60 μl 0.75% H3PO4 to each well of MAPH Filter Plate • 12) Transfer 30 μl sample per well from Assay Plate to corresponding well of MAPH Filter Plate • 13) Incubate 30 min at room temperature • 14) Wash each well of MAPH Filter Plates 3× with 200 μl 0.75% H3PO4 using Millipore vacuum station. • 15) Add 20 μl Scintillation Liquid to each well of MAPH Filter Plate • 16) Seal MAPH Filter Plate • 17) Store MAPH Filter Plate 30 min in darkness • 18) Quantify radioactivity
(§4) The activity of these protein kinases is depicted as % inhibition in the presence of 10 μM of compound in comparison to DMSO (0% inhibition).

PM1 cells = experiment: Growth assay using Alamar Blue; format: cell-based
Procedure: Growth Assay Using Alamar Blue™:
PM1 cells were seeded in 12-well plates at a density of 1.5×10^5 per well with RPMI 1640 containing 10% FCS (fetal calf serum), 1% L-Glutamine and 1% Na-Pyruvate (Sigma). Cells were incubated with compound for 2-3 days (37° C., 6% CO2) followed by subsequent splitting and renewing of compound-containing medium. At each of these time points an aliquot of cells served as data point for relative growth (given in % of the DMSO control [=100%]). The cell number was determined by addition of 10 μL Alamar Blue™ (Biozol) to 100 μL cell aliquots following the manufacturer's instructions.

Abl = Abl (Homo sapiens, UniProt P00519); experiment: General kinase assay, selectivity panel: Abl; format: biochemical; conditions: 10 μM of compound, in comparison to DMSO (0% inhibition)
Summary of the method: as §1

c-Src = c-Src (Homo sapiens, UniProt P12931); experiment: General kinase assay, selectivity panel: c-Src; format: biochemical; conditions: 10 μM of compound, in comparison to DMSO (0% inhibition)
Chain of c-Src (P12931 whole entry, species assumed): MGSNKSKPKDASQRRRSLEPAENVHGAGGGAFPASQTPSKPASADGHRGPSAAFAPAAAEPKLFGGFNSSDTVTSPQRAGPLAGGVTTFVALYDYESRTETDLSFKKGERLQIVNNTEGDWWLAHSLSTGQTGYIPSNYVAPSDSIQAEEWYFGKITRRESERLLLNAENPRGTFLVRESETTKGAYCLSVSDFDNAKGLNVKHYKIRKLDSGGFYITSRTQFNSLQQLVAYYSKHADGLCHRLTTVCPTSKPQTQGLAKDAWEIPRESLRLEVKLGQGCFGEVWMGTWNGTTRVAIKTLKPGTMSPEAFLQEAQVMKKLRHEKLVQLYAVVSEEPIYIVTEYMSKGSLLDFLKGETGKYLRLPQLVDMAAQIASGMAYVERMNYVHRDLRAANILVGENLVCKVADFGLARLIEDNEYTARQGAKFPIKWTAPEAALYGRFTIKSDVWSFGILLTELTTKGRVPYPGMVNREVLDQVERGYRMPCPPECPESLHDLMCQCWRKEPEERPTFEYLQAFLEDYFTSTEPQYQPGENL
Procedure: as §2, §3, §4

cMet = cMet (Homo sapiens, UniProt P08581); experiment: General kinase assay, selectivity panel: cMet; format: biochemical; conditions: 10 μM of compound, in comparison to DMSO (0% inhibition)
Procedure: as §2, §3, §4

[1] = tested on: CDK9-dependent phosphorylation of RNA-polymerase II; experiment: Determination of RNA polymerase II C-terminal domain phosphorylation (western blot, PM1 cells); format: cell-based
Procedure: Determination of RNA Polymerase II C-terminal Domain Phosphorylation: The phosphorylation status of RNA polymerase II C-terminal domain was determined by western blot techniques. PM1 cells were seeded in 6-well plates at a density of 5×10^5 per well. After over night incubation cells were treated with compound as indicated in the respective experiments. Cells were pelleted and lysed with 300 μL 3× Laemmli buffer followed by 30 min denaturing at 65° C. After separation of equal lysate volumes by SDS-PAGE the proteins were transferred to nitrocellulose membranes (Schleicher&Schuell) and probed with anti-[…] (H5), anti-[…] (H14) or RNA Poll II-antibodies purchased from Eurogentec and Santa Cruz, respectively. The amount of reactive protein was visualized by ECL detection methods (Amersham). In order to see, if the compounds according to the general formula (I) do have the intrinsic capacity to penetrate cells and act against cellular target proteins, especially CDK9, the effect of Compound 30 on CDK9-dependent phosphorylation of RNA-polymerase II was investigated.

[2] = tested on: NFκB-dependent transcriptional activity; experiment: NFκB-dependent transcriptional activity (NIH 3T3 75E 11/300D8 cell line); format: cell-based
From the text: NFκB-dependent Transcriptional Activity:
The used NIH 3T3 75E 11/300D8 cell line is described elsewhere (J. Eickhoff et al., Journal of Biological Chemistry, 2004, 279(10), 9642-9652).
It is known, that CDK9 regulates the NFκB-dependent transitional activity. With Compound 4, Compound 7 and Compound 30 studies were done, to evaluate their effect on NFκB-dependent transcriptional activity.

HBV = HBV replication assay in HepG2-2.2.15 cells; format: cell-based
Procedure: To test anti—HBV-activity of compounds the HBV-producing cell line HepG2-2.2.15 (M. A. Sells, PNAS 1987, 84, 1005-1009) was used. 1.0×10^4 cells were seeded in 96-well microtiter plates in DMEM medium supplemented with 10% FCS. After incubation at 37° C. in 5% CO2 atmosphere for 24 hours the medium was replaced with fresh medium containing the appropriately diluted compound. 3 days later medium was replaced by freshly prepared inhibitor-containing medium and the cells were incubated for further 3 days. Subsequently 200 μl lysis buffer (50 mM Tris-Cl 7.5; 1 mM EDTA 8.0; 0.5% NP40) per well was added. To remove cell debris and […], lysate was centrifuged (15000 rpm, 10 min, 4° C.). Cellular and viral RNA was removed by addition of 2 μl of RNase. 100 μl of the samples were spotted onto an uncharged nylon membrane pre-wetted with PBS (phosphate-buffered saline) using a 96 well-blotting chamber (MINIfold Dot-Blot, Schleicher&Schüll). After further washing with 200 μl PBS per well the membrane was treated twice with 0.5 M NaOH, 1.5 M NaCl (2 min) and 4 times with 0.5 M Tris 7.5, 3 M NaCl (1 min). The nucleic acids were fixed by UV-treatment and used for hybridisabon with a radioactive HBV-fragment prepared from the overgenome-length HBV-plasmid pT-HBV1.3 (L. G. Guidotti et al., Journal of Virology 1995., 69(10), 6158-6169).
The fixed membrane was pre-hybridized in a standard hybridisation buffer (50% formamide, 5×SSPE, 10×Denhards, 1% SDS, 100 μg/ml salmon sperm DNA) for at least 3 hours at 42° C. and hybridised overnight against the labelled HBV-fragment. The preparation of the HBV-fragment with the “Random primers DNA labelling system” (Invitrogen) was done according to the manufacturer's instructions. Hybridized filter were washed at room temperature with 2×SSC, at 62° C. with 2×SSC, 0.5% SDS and at 62° C. with 0.5×SSC, 0.5% SDS. Each washing step was carried out twice. The intensity of the HBV-DNA was quantified using a phosphoimager (Fuji). […] Absorbance was monitored at 570 nm and 600 nm wavelength.

HCMV strain AD169 = experiment: HCMV replication assay in HFF cells (EGFP); format: cell-based; conditions: strain AD 169 in HFF cells
Procedure: Human foreskin fibroblasts (HFF) cell culture were grown in DMEM containing 10% FCS. For HCMV-replication assays, HFF cells were infected with HCMV strain AD169 producing EGFP (HCMV AD169-GFP; 27). 1 h post infection, medium was changed with medium containing the indicated compound concentration (0.3 μM, 1 μM and 3 μM, respectively) After incubation of 7 days cells were lysed (in 25 mM Tris, pH 7.5, 2 mM DTT, 1% Triton X-100 and 10% glycerol) and analysed for EGFP content in a Wallac Victor fluorescence detector.

Row | Structure (SMILES) | CDK2 inhibition (in words) (CDK2/CyclinA) | CDK1 (% inhibition) (CDK1) | EGFR (% inhibition) (EGFR) | GSK-3β (% inhibition) (GSK-3β) | PDGFR (% inhibition) (PDGFR) | c-Kit (% inhibition) (c-Kit) | p56 Lck (% inhibition) (p56 Lck) | RSK1 (% inhibition) (RSK1) | effect on growth of PM1 cells (in words) (PM1 cells) | Abl (% inhibition) (Abl) | c-Src (% inhibition) (c-Src) | cMet (% inhibition) (cMet) | molecular weight of RNA polymerase II [1] | serine 2 phosphorylation of RNA polymerase II ([1]; anti-SER2 (H5)) | serine 5 phosphorylation of RNA polymerase II ([1]; anti-SER5 (H14)) | TNF-α stimulated NFκB-dependent promoter activity ([2]; 1 μM final concentration, TNF-α stimulated) | NFκB-dependent promoter activity under non-stimulated conditions ([2]; non-stimulated conditions) | EC50 ([2]; titration) | HBV replication (in words) (HBV) | HCMV replication (in words) (HCMV strain AD169)
1 | COc1ccccc1-c1cc(Nc2ccc(N3CCCC3=O)cc2)ncn1 [Compound 9] | tendency to inhibit potently | a (inhibition greater than 80%: a) | b (inhibition between 80 and 50%: b) | b (inhibition between 80 and 50%: b) | c (inhibition between 50 and 30%: c) | c (inhibition between 50 and 30%: c) | b (inhibition between 80 and 50%: b) | c (inhibition between 50 and 30%: c) | affect severely |  |  |  |  |  |  |  |  |  |  | 
2 | COC(=O)CN(c1ccc(Nc2cc(-c3ccccc3OC)ncn2)cc1)S(=O)(=O)c1ccc(C)cc1 [Compound 28] | tendency to inhibit potently |  |  |  |  |  |  |  | affect severely |  |  |  |  |  |  |  |  |  |  | 
3 | COc1ccccc1-c1cc(Nc2ccc(NC(=O)[C@@H]3CCCCN3)cc2)ncn1 [Compound 30] |  | a (inhibition greater than 80%: a) | a (inhibition greater than 80%: a) | c (inhibition between 50 and 30%: c) | c (inhibition between 50 and 30%: c) | b (inhibition between 80 and 50%: b) | b (inhibition between 80 and 50%: b) |  |  | b (inhibition between 80 and 50%: b) | b (inhibition between 80 and 50%: b) | c (inhibition between 50 and 30%: c) | reduction | decreased | did not show any differences | able, to affect | no inhibition was observed | ~1000 nM | inactive | showed inhibition
